Reference: patent publication US6355799B1, “Substituted benzene compounds, process for their preparation, and herbicidal and defoliant compositions containing them” (ISK Americas Incorporated, priority 1997, dated 2002)

What was measured:
Format in all cases: in vivo
[1] = tested on: field corn (Zea mays L., var. Dekalb 535, CORN); assay: Pre-emerge test, crop safety; settings: crop damage rating 0-100, 14 days after application
In short: (§1)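 Compounds in acetone were track-sprayed at 187 l/ha, 15–1000 g ai/ha, onto sandy loam pots. Pre-emerge seeds were sown one day before spraying, with surface watering afterwards. Post-emerge plants were at the 2–3 leaf stage and sprayed with 0.25% v/v non-ionic surfactant. Injury was rated 0–100 at 14 days.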

[2] = tested on: upland rice (Oryza sp., var. Tebonnet, RICE); assay: Pre-emerge test, crop safety; settings: crop damage rating 0-100, 14 days after application
In short: as §1

[3] = tested on: redroot pigweed (Amaranthus retroflexus, AMARE); assay: Pre-emerge test, greenhouse herbicide activity screening; settings: phytotoxicity rating 0-100, 14 days after application
In short: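 Herbicidal damage is scored 0 (none) to 100 (complete plant death) two weeks after a simulated field spray. Rates span 15–1000 g ai/ha, delivered in acetone at 187 l/ha. For post-emergence treatments, plants have 2–3 leaves and the spray carries 0.25% v/v non-ionic surfactant.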

[4] = tested on: sicklepod (Cassia obtusifolia, CASOB); assay: Post-emerge test, greenhouse herbicide activity screening; settings: post-emerge, 14 days after application, rating scale 0-100
In short: (§2)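 Plants grown in 10 cm pots of sandy loam mix received acetone-dissolved compounds through a moving flat-fan nozzle. Doses ranged from 15 to 1000 g ai/ha. Pre-emerge pots were seeded one day earlier, post-emerge pots 8–21 days earlier. Fourteen days on, each pot was graded 0–100 for damage.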

[5] = tested on: johnsongrass (Sorghum halepense, SORHA); assay: as above; settings: post-emerge, 14 days after application, rating scale 0-100
In short: as §2

[6] = tested on: lambsquarters (Chenopodium album, CHEAL); assay: as above; settings: post-emerge, 14 days after application, rating scale 0-100
In short: as §2

[7] = tested on: ivyleaf morningglory (Ipomoea hederacea, IPOHE); assay: as above; settings: post-emerge, 14 days after application, rating scale 0-100
In short: as §2

[8] = tested on: redroot pigweed (Amaranthus retroflexus, AMARE); assay: as above; settings: post-emerge, 14 days after application
In short: as §2

[9] = tested on: green foxtail (Setaria viridis, SETVI); assay: as above; settings: post-emerge, 14 days after application, rating scale 0-100
In short: as §2

[10] = tested on: velvetleaf (Abutilon theophrasti, ABUTH); assay: as above; settings: post-emerge, 14 days after application, rating scale 0-100
In short: as §2

[11] = tested on: large crabgrass (Digitaria sanguinalis, DIGSA); assay: as above; settings: post-emerge, 14 days after application, rating scale 0-100
In short: as §2

[12] = tested on: field corn (Zea mays L., var. Dekalb 535, CORN); assay: Post-emerge test, crop safety; settings: post-emerge, 14 days after application, rating scale 0-100
In short: as §1

[13] = tested on: upland rice (Oryza sp., var. Tebonnet, RICE); assay: Post-emerge test, crop safety; settings: post-emerge, 14 days after application, rating scale 0-100
In short: as §1

[14] = tested on: sicklepod (Cassia obtusifolia, CASOB); assay: Pre-emerge test, greenhouse herbicide activity screening; settings: phytotoxicity rating 0-100, 14 days after application
In short: as §1

[15] = tested on: johnsongrass (Sorghum halepense, SORHA); assay: as above; settings: phytotoxicity rating 0-100, 14 days after application
In short: as §1

[16] = tested on: barnyardgrass (Echinochloa crus-galli, ECHCG); assay: as above; settings: phytotoxicity rating 0-100, 14 days after application
In short: as §1

[17] = tested on: lambsquarters (Chenopodium album, CHEAL); assay: as above; settings: phytotoxicity rating 0-100, 14 days after application
In short: as §1

[18] = tested on: ivyleaf morningglory (Ipomoea hederacea, IPOHE); assay: as above; settings: phytotoxicity rating 0-100, 14 days after application
In short: as §1

[19] = tested on: green foxtail (Setaria viridis, SETVI); assay: as above; settings: phytotoxicity rating 0-100, 14 days after application
In short: as §1

[20] = tested on: velvetleaf (Abutilon theophrasti, ABUTH); assay: as above; settings: phytotoxicity rating 0-100, 14 days after application
In short: as §1

[21] = tested on: large crabgrass (Digitaria sanguinalis, DIGSA); assay: as above; settings: phytotoxicity rating 0-100, 14 days after application
In short: as §1

In the case of `COc1c(Cl)cc(F)c(-n2c(=O)cc(C(F)(F)F)n(C)c2=O)c1NC(=O)Oc1c(C)cc(C)cc1C` [4-25], the “Pre-emerge Herbicidal Activity CORN” value ([1]; 63 g ai/ha) is reported as 0, the “Pre-emerge Herbicidal Activity CORN” value ([1]; 250 g ai/ha) is reported as 0 and the “Pre-emerge Herbicidal Activity RICE” value ([2]; 63 g ai/ha) is reported as 0. The “Pre-emerge Herbicidal Activity RICE” value ([2]; 250 g ai/ha) was 0, the “Pre-emerge Herbicidal Activity AMARE” value ([3]; 63 g ai/ha) was 30 and the “Pre-emerge Herbicidal Activity AMARE” value ([3]; 250 g ai/ha) was 100. For the same compound, the “phytotoxicity rating CASOB” value ([4]; 63 g ai/ha) was 20, the “phytotoxicity rating CASOB” value ([4]; 250 g ai/ha) was 30 and the “phytotoxicity rating SORHA” value ([5]; 63 g ai/ha) was 0. The “phytotoxicity rating SORHA” value ([5]; 250 g ai/ha) was 10, the “phytotoxicity rating CHEAL” value ([6]; 63 g ai/ha) was 75 and the “phytotoxicity rating CHEAL” value ([6]; 250 g ai/ha) was 85. The “phytotoxicity rating IPOHE” value ([7]; 63 g ai/ha) was 40, the “phytotoxicity rating IPOHE” value ([7]; 250 g ai/ha) was 60 and the “phytotoxicity rating AMARE” value ([8]; 63 g ai/ha, rating scale 0-100 (0 no damage, 100 complete death)) was 70. The “phytotoxicity rating AMARE” value ([8]; 250 g ai/ha, rating scale 0-100) was 100, the “phytotoxicity rating SETVI” value ([9]; 63 g ai/ha) was 20 and the “phytotoxicity rating SETVI” value ([9]; 250 g ai/ha) was 30. The “phytotoxicity rating ABUTH” value ([10]; 63 g ai/ha) was 70, the “phytotoxicity rating ABUTH” value ([10]; 250 g ai/ha) was 95 and the “phytotoxicity rating DIGSA” value ([11]; 63 g ai/ha) was 0. The “phytotoxicity rating DIGSA” value ([11]; 250 g ai/ha) was 0, the “phytotoxicity rating CORN (crop damage)” value ([12]; 63 g ai/ha) was 5 and the “phytotoxicity rating CORN (crop damage)” value ([12]; 250 g ai/ha) was 15. The “phytotoxicity rating RICE (crop damage)” value ([13]; 63 g ai/ha) was 0, the “phytotoxicity rating RICE (crop damage)” value ([13]; 250 g ai/ha) was 20 and the “Pre-emerge Herbicidal Activity CASOB” value ([14]; 63 g ai/ha) was 0. For the same compound, the “Pre-emerge Herbicidal Activity CASOB” value ([14]; 250 g ai/ha) was 20, the “Pre-emerge Herbicidal Activity SORHA” value ([15]; 63 g ai/ha) was 0 and the “Pre-emerge Herbicidal Activity SORHA” value ([15]; 250 g ai/ha) was 0. The “Pre-emerge Herbicidal Activity ECHCG” value ([16]; 63 g ai/ha) was 0, the “Pre-emerge Herbicidal Activity ECHCG” value ([16]; 250 g ai/ha) was 0 and the “Pre-emerge Herbicidal Activity CHEAL” value ([17]; 63 g ai/ha) was 60. The “Pre-emerge Herbicidal Activity CHEAL” value ([17]; 250 g ai/ha) was 100, the “Pre-emerge Herbicidal Activity IPOHE” value ([18]; 63 g ai/ha) was 0 and the “Pre-emerge Herbicidal Activity IPOHE” value ([18]; 250 g ai/ha) was 0. For the same compound, the “Pre-emerge Herbicidal Activity SETVI” value ([19]; 63 g ai/ha) was 0, the “Pre-emerge Herbicidal Activity SETVI” value ([19]; 250 g ai/ha) was 50 and the “Pre-emerge Herbicidal Activity ABUTH” value ([20]; 63 g ai/ha) was 0. For the same compound, the “Pre-emerge Herbicidal Activity ABUTH” value ([20]; 250 g ai/ha) was 60, the “Pre-emerge Herbicidal Activity DIGSA” value ([21]; 63 g ai/ha) was 0 and the “Pre-emerge Herbicidal Activity DIGSA” value ([21]; 250 g ai/ha) was 10.
